Patent US6469166B2, “Thiophenopyrimidines” (Neurocrine Biosciences, Inc., priority 1996, dated 2002)

Target: T1, human CRF receptors (Homo sapiens, UniProt P34998)
T1 construct: expressed in transfected cells; a membrane suspension of the stably transfected cells was used
T1 sequence (P34998 24-415): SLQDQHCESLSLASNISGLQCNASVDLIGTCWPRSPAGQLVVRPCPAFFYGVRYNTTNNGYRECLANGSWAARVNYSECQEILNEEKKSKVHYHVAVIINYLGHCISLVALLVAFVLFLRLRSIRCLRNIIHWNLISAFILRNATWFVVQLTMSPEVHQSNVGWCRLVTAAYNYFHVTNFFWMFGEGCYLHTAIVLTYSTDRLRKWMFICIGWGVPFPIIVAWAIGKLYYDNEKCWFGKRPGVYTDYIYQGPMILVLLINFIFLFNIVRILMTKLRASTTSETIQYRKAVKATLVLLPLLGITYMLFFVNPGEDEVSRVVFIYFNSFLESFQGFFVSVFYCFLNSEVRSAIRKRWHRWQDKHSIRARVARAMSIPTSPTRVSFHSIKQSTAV
Test: CRF receptor radioligand binding assay ([125I] tyrosine-ovine CRF displacement)
Conditions: compounds found to show the best score in this test
Experimental: Compounds were evaluated for binding activity to the CRF receptor by a standard radioligand binding assay as generally described by DeSouza et al. (J. Neutrosci. 7:88-100, 1987). By utilizing various radiolabeled CRF ligands, the assay may be used to evaluate the binding activity of the compounds of the present invention with any CRF receptor subtype. Briefly, the binding assay involves the displacement of a radiolabeled CRF ligand from the CRF receptor. More specifically, the binding assay was performed in 1.5 ml Eppendorf tubes using approximately 1×10^6 cells per tube stably transfected with human CRF receptors. Each tube received about 0.1 ml of assay buffer (e.g., Dulbecco's phosphate buffered saline, 10 mM magnesium chloride, 20 μM bacitracin) with or without unlabeled sauvagine, urotensin I or CRF (final concentration, 1 μM) to determine nonspecific binding, 0.1 ml of [^125I] tyrosine-ovine CRF (final concentration ˜200 pM or approximately the KD as determined by Scatchard analysis) and 0.1 ml of a membrane suspension of cells containing the CRF receptor. […] Following two washes of the pellets, the tubes were cut just above the pellet and monitored in a gamma counter for radioactivity at approximately 80% efficiency. All radioligand binding data were analyzed using a non-linear least-square curve-fitting program. […]

score in the CRF receptor binding test: best score
Compound: CCCN(CCC)c1nc(C)nc2c(-c3c(C)cc(C)cc3C)csc12 [Compound 1, 2-methyl-6-(N,N-dipropylamino)-8-(2,4,6-trimethylphenyl)-thiopheno[3,2-d]pyrimidine]
